Laboratory results published in PubChem BioAssay AID330 (DTP/NCI, 2004).
Values joined by “and” are separate entries in the source; they are usually repeats but may differ in a detail not shown here. Equal values may be shown once. Inconclusive results and toxic doses are left out. The calls were made as follows: active = survival T/C of 150% or more; inactive = T/C below 125% in these data.

Test system: P388 leukemia ip, CD2F1 mice, survival T/C
Assay: NCI In Vivo Anticancer Drug Screen. Data for tumor model P388 Leukemia (intraperitoneal) in CD2F1 (CDF1) mice
Settings: endpoint: median survival time, higher = longer survival
Summary of the method: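 Mice carrying the transplanted tumor received test compound or vehicle. Survival was recorded in each group, and the value is the treated-group measurement divided by that of the vehicle-treated control group.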

[1] = dose: 50.0 mg/kg/injection, schedule: Q01DX009 (ip), vehicle: saline
[2] = dose: 100.0 mg/kg/injection, schedule: Q01DX009 (ip), vehicle: saline
[3] = dose: 50.0 mg/kg/injection, schedule: Q01DX009 (ip), vehicle: saline with Tween-80
[4] = dose: 100.0 mg/kg/injection, schedule: Q01DX009 (ip), vehicle: saline with Tween-80
[5] = dose: 200.0 mg/kg/injection, schedule: Q01DX009 (ip), vehicle: saline with Tween-80
[6] = dose: 200.0 mg/kg/injection, schedule: Q01DX009 (ip), vehicle: saline
[7] = dose: 100.0 mg/kg/injection, schedule: Q01DX009 (ip), vehicle: Klucel (hydroxypropylcellulose) (HPC)
[8] = dose: 200.0 mg/kg/injection, schedule: Q01DX001 (ip), vehicle: Klucel (hydroxypropylcellulose) (HPC)
[9] = dose: 400.0 mg/kg/injection, schedule: Q01DX001 (ip), vehicle: Klucel (hydroxypropylcellulose) (HPC)

Measured: T/C

Cc1cccc(C(=O)CCN(C)C)c1
inactive: dose: 12.5 mg/kg/injection, schedule: Q01DX009 (ip), vehicle: saline 94 % of control | dose: 25.0 mg/kg/injection, schedule: Q01DX009 (ip), vehicle: saline 99 % of control | [1] 100 % of control and 101 % of control and 108 % of control | [2] 98 % of control

CCN1C(=O)C(=O)c2ccccc21
inactive: dose: 18.75 mg/kg/injection, schedule: Q01DX009 (ip), vehicle: saline with Tween-80 96 % of control | dose: 18.75 mg/kg/injection, schedule: Q01DX009 (ip), vehicle: saline 107 % of control | dose: 37.5 mg/kg/injection, schedule: Q01DX009 (ip), vehicle: saline with Tween-80 96 % of control | dose: 37.5 mg/kg/injection, schedule: Q01DX009 (ip), vehicle: saline 102 % of control and 110 % of control | dose: 75.0 mg/kg/injection, schedule: Q01DX009 (ip), vehicle: saline with Tween-80 100 % of control | dose: 75.0 mg/kg/injection, schedule: Q01DX009 (ip), vehicle: saline 104 % of control and 105 % of control

CC(CCC(=O)O)C1CCC2C3CCC4CC(OC=O)CCC4(C)C3CC(OC=O)C12C (stereo not drawn)
inactive: [3] 95 % of control | dose: 50.0 mg/kg/injection, schedule: Q04DX003 (ip), vehicle: saline with Tween-80 105 % of control | [4] 90 % of control | dose: 100.0 mg/kg/injection, schedule: Q04DX003 (ip), vehicle: saline with Tween-80 100 % of control | [5] 90 % of control | dose: 200.0 mg/kg/injection, schedule: Q04DX003 (ip), vehicle: saline with Tween-80 100 % of control

COc1cc(-c2ccc(N=Nc3c(O)c(C(=O)Nc4ccccc4OC)cc4ccccc34)c(OC)c2)ccc1N=Nc1c(O)c(C(=O)Nc2ccccc2OC)cc2ccccc12
inactive: dose: 6.25 mg/kg/injection, schedule: Q01DX005 (ip), vehicle: saline with Tween-80 90 % of control | dose: 12.5 mg/kg/injection, schedule: Q01DX005 (ip), vehicle: saline with Tween-80 96 % of control | dose: 25.0 mg/kg/injection, schedule: Q01DX005 (ip), vehicle: saline with Tween-80 89 % of control

O=C1CSC(=O)N1c1cccc(Cl)c1
inactive: dose: 1.56 mg/kg/injection, schedule: Q01DX009 (ip), vehicle: saline 99 % of control and 97 % of control | dose: 3.12 mg/kg/injection, schedule: Q01DX009 (ip), vehicle: saline 100 % of control and 103 % of control | dose: 6.25 mg/kg/injection, schedule: Q01DX009 (ip), vehicle: saline 90 % of control and 96 % of control | [3] 106 % of control | [1] 89 % of control

CCC[CH2][Sn]([CH2]CCC)([CH2]CCC)[CH2]CCN(C)C
inactive: [1] 99 % of control | [2] 100 % of control

O=C(Nc1cccc(Cl)c1Cl)Oc1ccc(Cl)cc1C(=O)c1ccccc1
inactive: [1] 94 % of control | [2] 89 % of control | [6] 99 % of control

CCCCCCCC/C=C\CCCCCCCC(=O)OCCN(CCOC(=O)CCCCCCC/C=C\CCCCCCCC)C(=O)c1ccccc1
inactive: [3] 116 % of control | [4] 97 % of control | [5] 111 % of control

CC(=O)N=c1sccn1CC(O)c1ccccc1 (stereo not drawn)
inactive: dose: 50.0 mg/kg/injection, schedule: Q01DX009 (ip), vehicle: Klucel (hydroxypropylcellulose) (HPC) 105 % of control | [7] 99 % of control | [8] 118 % of control | dose: 200.0 mg/kg/injection, schedule: Q01DX009 (ip), vehicle: Klucel (hydroxypropylcellulose) (HPC) 108 % of control | [9] 100 % of control

C=C1CC2(CCCC3(C)CCC(C(C)C)CC32C)OC1=O (stereo not drawn)
inactive: dose: 100.0 mg/kg/injection, schedule: Q01DX001 (ip), vehicle: saline 101 % of control | dose: 200.0 mg/kg/injection, schedule: Q01DX001 (ip), vehicle: saline 106 % of control | dose: 400.0 mg/kg/injection, schedule: Q01DX001 (ip), vehicle: saline 110 % of control

COC(=O)C(S)(NC(C)=O)C(C)C (stereo not drawn)
inactive: [1] 102 % of control | [2] 98 % of control | [6] 104 % of control

NC(=S)c1ccc(N=Cc2ccco2)cc1
inactive: dose: 100.0 mg/kg/injection, schedule: Q01DX001 (ip), vehicle: Klucel (hydroxypropylcellulose) (HPC) 102 % of control | [8] 104 % of control | [9] 105 % of control

CS(=O)(=O)OCCOS(C)(=O)=O
active: dose: 400.0 mg/kg/injection, schedule: Q01DX009 (ip), vehicle: saline 163 % of control
inactive: [1] 111 % of control | [7] 92 % of control | [2] 123 % of control

CCOC(=O)c1ccc(NC(=S)NC(=O)c2cccc(Br)c2)cc1
inactive: dose: 60.0 mg/kg/injection, schedule: Q01DX005 (ip), vehicle: saline with Tween-80 95 % of control | dose: 120.0 mg/kg/injection, schedule: Q01DX005 (ip), vehicle: saline with Tween-80 95 % of control | dose: 240.0 mg/kg/injection, schedule: Q01DX005 (ip), vehicle: saline with Tween-80 90 % of control
